Measured values taken from patent publication US11180528B2 (priority 2018, dated 2021).
Converted amounts (≈) assume the structure as drawn. “Also recorded” adds a separate entry of the source. Read-outs that look alike come from different tables or passages of the source. Ends that are not written are not given here.

Key:
F. tularensis LVS [1] = system: F. tularensis LVS
[2] = system: F. tularensis tularensis SchuS4
F. tularensis LVS [3] = conditions: mouse, in vivo
F. tularensis LVS [4] = conditions: mouse, in vivo; cited from earlier work
F. tularensis LVS [5] = system: F. tularensis LVS; remark: listed apart in the source
[6] = system: F. tularensis tularensis SchuS4; remark: listed apart in the source
G. mellonella larvae = conditions: in vivo
F. tularensis LVS [7] = format: cell-based, Francisella tularensis subsp. holarctica
F. tularensis LVS [8] = format: cell-based, Francisella tularensis subsp. holarctica; remark: listed apart in the source
F. tularensis LVS LPS = format: binding, Francisella tularensis subsp. holarctica
E. coli LPS = format: binding
F. tularensis LVS [9] = system: F. tularensis LVS; parameters: species or system Galleria mellonella; conditions: in vivo
[10] = system: A549 human lung epithelial cells

Row | Molecule | EC50 (95% CI) [μg/ml] (F. tularensis LVS [1]) | EC50 (F. tularensis LVS [1]; 3 h) [nM] | EC50 (95% CI) [μg/ml] (F. tularensis NIH B38) | EC50 (F. tularensis NIH B38; 3 h) [nM] | EC50 [2] [nM] | EC50 (95% CI) (F. tularensis LVS [1]; 3 h) [µg/mL] | MIC / inhibitory activity in broth (F. tularensis LVS [5]) | MIC [6] [µg/mL] | also measured
1 | CC[C@H](C)[C@H](NC(=O)[C@H](CCCCN)NC(=O)[C@H](CCC(=O)O)NC(=O)[C@H](CCCCN)NC(=O)[C@H](CO)NC(=O)[C@H](CCCCN)NC(=O)[C@H](CCCNC(=N)N)NC(=O)[C@H](Cc1ccccc1)NC(=O)[C@H](Cc1ccccc1)NC(=O)[C@H](CC(=O)O)NC(=O)CNC(=O)[C@H](CC(C)C)NC(=O)[C@@H](N)CC(C)C)C(=O)NCC(=O)N[C@@H](CCCCN)C(=O)N[C@@H](CCC(=O)O)C(=O)N[C@@H](Cc1ccccc1)C(=O)N[C@@H](CCCCN)C(=O)N[C@@H](CCCNC(=N)N)C(=O)N[C@H](C(=O)N[C@H](C(=O)N[C@@H](CCC(N)=O)C(=O)N[C@@H](CCCNC(=N)N)C(=O)N[C@H](C(=O)N[C@@H](CCCCN)C(=O)N[C@@H](CC(=O)O)C(=O)N[C@@H](Cc1ccccc1)C(=O)N[C@@H](CC(C)C)C(=O)N[C@@H](CCCNC(=N)N)C(=O)N[C@@H](CC(N)=O)C(=O)N[C@@H](CC(C)C)C(=O)N[C@H](C(=O)N1CCC[C@H]1C(=O)N[C@@H](CCCNC(=N)N)C(=O)N[C@H](C(=O)N[C@@H](CCC(=O)O)C(=O)N[C@@H](CO)C(=O)O)[C@@H](C)O)C(C)C)[C@@H](C)CC)C(C)C)[C@@H](C)CC [LL-37] | 0.21 (0.14-0.31) μg/ml | 47 | 0.13 (0.076-0.21) μg/ml | 28 | 125 |  |  |  | EC50 (95% CI) (F. tularensis LVS [1]): 0.209 µg/mL (≈ 0.0465 µM); EC50 (95% CI) [μg/ml] [2]: 0.562 (0.195 to 1.61) μg/ml; severity of signs of disease (health scores) (F. tularensis LVS [3]): nor did these peptides lessen signs of disease; mean time till death and survival (F. tularensis LVS [4]): extended mean time till death but did not increase survival; also recorded: significantly extended mean time to death, but did not ultimately rescue any mice
2 | FSTKTRNWFSEHFKKVKEKLKDTFA [Apo5, reference compound] |  |  |  |  |  | ~6 |  |  | EC50 (95% CI) (F. tularensis NIH B38; 3 h): ~16 µg/mL
3 | KFRNWFSEHFKKFKEKLKDTFA [GATR-1] | 0.76 (0.54-1.1) μg/ml | 260 | 16 (9.5-27) μg/ml | 5620 |  |  | inactive |  | 
4 | KFRNWFSQHFKKFKQKLKNTFA [GATR-3] |  | 190 |  | 280 | 10000 |  |  | >83.3 | 
5 | KFRNWFSQHWKKWKQKLKNTWA [GATR-5] |  | 260 |  | 650 |  |  |  |  | survival of larvae (toxicity) (G. mellonella larvae): 30%
6 | KFRNWFSQHWRRWRQRLRNTWA [GATR-6] |  | 290 |  | 51 | 10400 |  |  | >83.3 | mean time till death (MTD) (F. tularensis LVS [3]): 6 days
7 | KTRNWFSEHFKKVKEKLKDTFA [Apo6] | 6.8 (5.9-7.8) μg/ml | 2500 | 16 (8.6-31) μg/ml | 5890 |  | ~6 | no observable MIC |  | dissipation of membrane potential (F. tularensis LVS [7]): dissipated the membrane potential; pore formation (change in RFU) (F. tularensis LVS [8]): significant pore formation; also recorded: significant membrane disruption; LPS binding (F. tularensis LVS LPS): does not significantly bind; LPS binding (E. coli LPS): did not bind; survival of infected larvae (F. tularensis LVS [9]): 60%; EC50 (95% CI) (F. tularensis LVS [1]): 6.82 µg/mL; EC50 (95% CI) (F. tularensis NIH B38): 16.3 µg/mL; EC50 (95% CI) (F. tularensis NIH B38; 3 h): ~16 µg/mL; EC50 [μM] [2]: Not active; efficacy in murine studies (F. tularensis LVS [3]): not reliably effective
8 | KTRNWFSQHFKKVKQKLKNTFA [GATR-2] | 2.4 (1.5-3.7) μg/ml | 860 | 11 (7.7-15) μg/ml | 3900 |  |  | inactive |  | 
9 | NPKTRNWFSEHFKKVKEKLKDTFA [GATR-4] |  | 3700 |  |  |  | 11.0 | inactive |  | EC50 [μM] (F. tularensis NIH B38): Not active
10 | RWRNWWSQRWRRWRQRLRNTWA [GATR-7] |  | 320 |  | 530 | 7470 |  |  | 41.7 | inhibition (F. tularensis LVS [5]; 41.5 μg/ml): 85%; suppression of cell proliferation [10]: some statistically significant suppression of cell proliferation; death of larvae (toxicity) (G. mellonella larvae): not found to have significant death
